Experimental data taken from the NIST ThermoML archive (doi:10.1016/j.jct.2019.02.011).
± gives the expanded uncertainty stated by the source.

Assay: xn = mol fraction of the nth substance listed
Conditions: 288.15 K, Liquid, Vibrating tube method

## COC(=O)OC [dimethyl carbonate] + CO
100 kPa, x1 = 0.0253
  mass density: 810.84 ± 1.4 kg/m3
100 kPa, x1 = 0.0503
  mass density: 824.62 ± 1.4 kg/m3
100 kPa, x1 = 0.0745
  mass density: 837.24 ± 1.4 kg/m3
100 kPa, x1 = 0.101
  mass density: 850.42 ± 1.4 kg/m3
100 kPa, x1 = 0.1502
  mass density: 872.98 ± 1.4 kg/m3
100 kPa, x1 = 0.2059
  mass density: 896.31 ± 1.4 kg/m3
100 kPa, x1 = 0.25
  mass density: 913.24 ± 1.4 kg/m3
100 kPa, x1 = 0.3004
  mass density: 930.93 ± 1.4 kg/m3
100 kPa, x1 = 0.3426
  mass density: 944.7 ± 1.4 kg/m3
100 kPa, x1 = 0.3984
  mass density: 961.49 ± 1.5 kg/m3
100 kPa, x1 = 0.4514
  mass density: 976.13 ± 1.5 kg/m3
100 kPa, x1 = 0.5054
  mass density: 989.85 ± 1.5 kg/m3
100 kPa, x1 = 0.5509
  mass density: 1000.55 ± 1.5 kg/m3
100 kPa, x1 = 0.6002
  mass density: 1011.31 ± 1.5 kg/m3
100 kPa, x1 = 0.6469
  mass density: 1020.74 ± 1.5 kg/m3
100 kPa, x1 = 0.6993
  mass density: 1030.63 ± 1.5 kg/m3
100 kPa, x1 = 0.7496
  mass density: 1039.53 ± 1.5 kg/m3
100 kPa, x1 = 0.799
  mass density: 1047.69 ± 1.5 kg/m3
100 kPa, x1 = 0.837
  mass density: 1053.71 ± 1.5 kg/m3
100 kPa, x1 = 0.9093
  mass density: 1064.47 ± 1.6 kg/m3
100 kPa, x1 = 0.9239
  mass density: 1066.51 ± 1.6 kg/m3
100 kPa, x1 = 0.9575
  mass density: 1071.14 ± 1.6 kg/m3
100 kPa, x1 = 0.9861
  mass density: 1074.98 ± 1.6 kg/m3
100 kPa, x1 = 1
  mass density: 1076.83 ± 0.57 kg/m3
5000 kPa, x1 = 0.0253
  mass density: 815.18 ± 1.4 kg/m3
5000 kPa, x1 = 0.0503
  mass density: 828.97 ± 1.4 kg/m3
5000 kPa, x1 = 0.0745
  mass density: 841.59 ± 1.4 kg/m3
5000 kPa, x1 = 0.101
  mass density: 854.82 ± 1.4 kg/m3
5000 kPa, x1 = 0.1502
  mass density: 877.39 ± 1.4 kg/m3
5000 kPa, x1 = 0.2059
  mass density: 900.74 ± 1.4 kg/m3
5000 kPa, x1 = 0.25
  mass density: 917.63 ± 1.4 kg/m3
5000 kPa, x1 = 0.3004
  mass density: 935.33 ± 1.4 kg/m3
5000 kPa, x1 = 0.3426
  mass density: 949.1 ± 1.5 kg/m3
5000 kPa, x1 = 0.3984
  mass density: 965.91 ± 1.5 kg/m3
5000 kPa, x1 = 0.4514
  mass density: 980.55 ± 1.5 kg/m3
5000 kPa, x1 = 0.5054
  mass density: 994.22 ± 1.5 kg/m3
5000 kPa, x1 = 0.5509
  mass density: 1004.93 ± 1.5 kg/m3
5000 kPa, x1 = 0.6002
  mass density: 1015.7 ± 1.5 kg/m3
5000 kPa, x1 = 0.6469
  mass density: 1025.14 ± 1.5 kg/m3
5000 kPa, x1 = 0.6993
  mass density: 1035.03 ± 1.5 kg/m3
5000 kPa, x1 = 0.7496
  mass density: 1043.88 ± 1.5 kg/m3
5000 kPa, x1 = 0.799
  mass density: 1052.04 ± 1.5 kg/m3
5000 kPa, x1 = 0.837
  mass density: 1058.02 ± 1.5 kg/m3
5000 kPa, x1 = 0.9093
  mass density: 1068.78 ± 1.6 kg/m3
5000 kPa, x1 = 0.9239
  mass density: 1070.83 ± 1.6 kg/m3
5000 kPa, x1 = 0.9575
  mass density: 1075.46 ± 1.6 kg/m3
5000 kPa, x1 = 0.9861
  mass density: 1079.3 ± 1.6 kg/m3
5000 kPa, x1 = 1
  mass density: 1081.15 ± 0.57 kg/m3
10000 kPa, x1 = 0.0253
  mass density: 819.54 ± 1.4 kg/m3
10000 kPa, x1 = 0.0503
  mass density: 833.29 ± 1.4 kg/m3
10000 kPa, x1 = 0.0745
  mass density: 845.92 ± 1.4 kg/m3
10000 kPa, x1 = 0.101
  mass density: 859.16 ± 1.4 kg/m3
10000 kPa, x1 = 0.1502
  mass density: 881.74 ± 1.4 kg/m3
10000 kPa, x1 = 0.2059
  mass density: 905.09 ± 1.4 kg/m3
10000 kPa, x1 = 0.25
  mass density: 921.99 ± 1.4 kg/m3
10000 kPa, x1 = 0.3004
  mass density: 939.69 ± 1.4 kg/m3
10000 kPa, x1 = 0.3426
  mass density: 953.42 ± 1.5 kg/m3
10000 kPa, x1 = 0.3984
  mass density: 970.23 ± 1.5 kg/m3
10000 kPa, x1 = 0.4514
  mass density: 984.83 ± 1.5 kg/m3
10000 kPa, x1 = 0.5054
  mass density: 998.51 ± 1.5 kg/m3
10000 kPa, x1 = 0.5509
  mass density: 1009.17 ± 1.5 kg/m3
10000 kPa, x1 = 0.6002
  mass density: 1019.95 ± 1.5 kg/m3
10000 kPa, x1 = 0.6469
  mass density: 1029.39 ± 1.5 kg/m3
10000 kPa, x1 = 0.6993
  mass density: 1039.28 ± 1.5 kg/m3
10000 kPa, x1 = 0.7496
  mass density: 1048.14 ± 1.5 kg/m3
10000 kPa, x1 = 0.799
  mass density: 1056.25 ± 1.5 kg/m3
10000 kPa, x1 = 0.837
  mass density: 1062.23 ± 1.6 kg/m3
10000 kPa, x1 = 0.9093
  mass density: 1072.95 ± 1.6 kg/m3
10000 kPa, x1 = 0.9239
  mass density: 1074.99 ± 1.6 kg/m3
10000 kPa, x1 = 0.9575
  mass density: 1079.63 ± 1.6 kg/m3
10000 kPa, x1 = 0.9861
  mass density: 1083.47 ± 1.6 kg/m3
10000 kPa, x1 = 1
  mass density: 1085.32 ± 0.58 kg/m3
15000 kPa, x1 = 0.0253
  mass density: 823.48 ± 1.4 kg/m3
15000 kPa, x1 = 0.0503
  mass density: 837.23 ± 1.4 kg/m3
15000 kPa, x1 = 0.0745
  mass density: 849.88 ± 1.4 kg/m3
15000 kPa, x1 = 0.101
  mass density: 863.12 ± 1.4 kg/m3
15000 kPa, x1 = 0.1502
  mass density: 885.77 ± 1.4 kg/m3
15000 kPa, x1 = 0.2059
  mass density: 909.15 ± 1.4 kg/m3
15000 kPa, x1 = 0.25
  mass density: 926.05 ± 1.4 kg/m3
15000 kPa, x1 = 0.3004
  mass density: 943.77 ± 1.4 kg/m3
15000 kPa, x1 = 0.3426
  mass density: 957.51 ± 1.5 kg/m3
15000 kPa, x1 = 0.3984
  mass density: 974.34 ± 1.5 kg/m3
15000 kPa, x1 = 0.4514
  mass density: 988.95 ± 1.5 kg/m3
15000 kPa, x1 = 0.5054
  mass density: 1002.64 ± 1.5 kg/m3
15000 kPa, x1 = 0.5509
  mass density: 1013.31 ± 1.5 kg/m3
15000 kPa, x1 = 0.6002
  mass density: 1024.09 ± 1.5 kg/m3
15000 kPa, x1 = 0.6469
  mass density: 1033.54 ± 1.5 kg/m3
15000 kPa, x1 = 0.6993
  mass density: 1043.44 ± 1.5 kg/m3
15000 kPa, x1 = 0.7496
  mass density: 1052.31 ± 1.5 kg/m3
15000 kPa, x1 = 0.799
  mass density: 1060.43 ± 1.5 kg/m3
15000 kPa, x1 = 0.837
  mass density: 1066.41 ± 1.6 kg/m3
15000 kPa, x1 = 0.9093
  mass density: 1077.14 ± 1.6 kg/m3
15000 kPa, x1 = 0.9239
  mass density: 1079.18 ± 1.6 kg/m3
15000 kPa, x1 = 0.9575
  mass density: 1083.83 ± 1.6 kg/m3
15000 kPa, x1 = 0.9861
  mass density: 1087.67 ± 1.6 kg/m3
15000 kPa, x1 = 1
  mass density: 1089.52 ± 0.6 kg/m3
20000 kPa, x1 = 0.0253
  mass density: 827.53 ± 1.4 kg/m3
20000 kPa, x1 = 0.0503
  mass density: 841.29 ± 1.4 kg/m3
20000 kPa, x1 = 0.0745
  mass density: 853.93 ± 1.4 kg/m3
20000 kPa, x1 = 0.101
  mass density: 867.17 ± 1.4 kg/m3
20000 kPa, x1 = 0.1502
  mass density: 889.81 ± 1.4 kg/m3
20000 kPa, x1 = 0.2059
  mass density: 913.18 ± 1.4 kg/m3
20000 kPa, x1 = 0.25
  mass density: 930.08 ± 1.4 kg/m3
20000 kPa, x1 = 0.3004
  mass density: 947.8 ± 1.5 kg/m3
20000 kPa, x1 = 0.3426
  mass density: 961.53 ± 1.5 kg/m3
20000 kPa, x1 = 0.3984
  mass density: 978.3 ± 1.5 kg/m3
20000 kPa, x1 = 0.4514
  mass density: 992.91 ± 1.5 kg/m3
20000 kPa, x1 = 0.5054
  mass density: 1006.6 ± 1.5 kg/m3
20000 kPa, x1 = 0.5509
  mass density: 1017.27 ± 1.5 kg/m3
20000 kPa, x1 = 0.6002
  mass density: 1028.04 ± 1.5 kg/m3
20000 kPa, x1 = 0.6469
  mass density: 1037.49 ± 1.5 kg/m3
20000 kPa, x1 = 0.6993
  mass density: 1047.34 ± 1.5 kg/m3
20000 kPa, x1 = 0.7496
  mass density: 1056.2 ± 1.5 kg/m3
20000 kPa, x1 = 0.799
  mass density: 1064.32 ± 1.6 kg/m3
20000 kPa, x1 = 0.837
  mass density: 1070.3 ± 1.6 kg/m3
20000 kPa, x1 = 0.9093
  mass density: 1080.97 ± 1.6 kg/m3
20000 kPa, x1 = 0.9239
  mass density: 1083.02 ± 1.6 kg/m3
20000 kPa, x1 = 0.9575
  mass density: 1087.66 ± 1.6 kg/m3
20000 kPa, x1 = 0.9861
  mass density: 1091.5 ± 1.6 kg/m3
20000 kPa, x1 = 1
  mass density: 1093.35 ± 0.61 kg/m3
25000 kPa, x1 = 0.0253
  mass density: 831.19 ± 1.4 kg/m3
25000 kPa, x1 = 0.0503
  mass density: 844.9 ± 1.4 kg/m3
25000 kPa, x1 = 0.0745
  mass density: 857.55 ± 1.4 kg/m3
25000 kPa, x1 = 0.101
  mass density: 870.8 ± 1.4 kg/m3
25000 kPa, x1 = 0.1502
  mass density: 893.46 ± 1.4 kg/m3
25000 kPa, x1 = 0.2059
  mass density: 916.85 ± 1.4 kg/m3
25000 kPa, x1 = 0.25
  mass density: 933.76 ± 1.4 kg/m3
25000 kPa, x1 = 0.3004
  mass density: 951.49 ± 1.5 kg/m3
25000 kPa, x1 = 0.3426
  mass density: 965.18 ± 1.5 kg/m3
25000 kPa, x1 = 0.3984
  mass density: 981.96 ± 1.5 kg/m3
25000 kPa, x1 = 0.4514
  mass density: 996.58 ± 1.5 kg/m3
25000 kPa, x1 = 0.5054
  mass density: 1010.28 ± 1.5 kg/m3
25000 kPa, x1 = 0.5509
  mass density: 1020.95 ± 1.5 kg/m3
25000 kPa, x1 = 0.6002
  mass density: 1031.69 ± 1.5 kg/m3
25000 kPa, x1 = 0.6469
  mass density: 1041.14 ± 1.5 kg/m3
